Legend:
Hepatotoxicity [1] = system: Hepatotoxicity;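 for HepSE bilirubinemia: bilirubinemia hepatic side effect score drawn from the DILIps training data, a prediction system for drug-induced liver injury; call rule not given here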;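 for HepSE cholecystitis: Cholecystitis-related hepatic side effect score drawn from the DILIps (drug-induced liver injury prediction) training data set; call rule not given here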;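 for HepSE cholelithiasis: hepatic side effect score for cholelithiasis, drawn from the DILIps training data for predicting drug-induced liver injury; call rule not given here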;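 for HepSE cirrhosis: cirrhosis hepatic side effect score taken from the DILIps (drug-induced liver injury prediction) training set; call rule not given here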;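 for HepSE elevated liver function tests: hepatic side effect score for raised liver function tests, as recorded in the DILIps training set used for predicting drug-induced liver injury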; for HepSE hepatic failure: call rule not given here;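 for HepSE hepatomegaly: hepatic side effect score for hepatomegaly, taken from the training set of the DILIps drug-induced liver injury prediction system; call rule not given here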
Hepatotoxicity [2] = system: Hepatotoxicity; remark: listed apart in the source;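 for HepSE bilirubinemia: bilirubinemia hepatic side effect score drawn from the DILIps training data, a prediction system for drug-induced liver injury; call rule not given here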;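 for HepSE cholecystitis: Cholecystitis-related hepatic side effect score drawn from the DILIps (drug-induced liver injury prediction) training data set; call rule not given here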;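 for HepSE cholelithiasis: hepatic side effect score for cholelithiasis, drawn from the DILIps training data for predicting drug-induced liver injury; call rule not given here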;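 for HepSE cirrhosis: cirrhosis hepatic side effect score taken from the DILIps (drug-induced liver injury prediction) training set; call rule not given here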;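 for HepSE elevated liver function tests: hepatic side effect score for raised liver function tests, as recorded in the DILIps training set used for predicting drug-induced liver injury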; for HepSE hepatic failure: call rule not given here
Hepatotoxicity [3] = system: Hepatotoxicity; remark: listed apart in the source;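 for HepSE bilirubinemia: bilirubinemia hepatic side effect score drawn from the DILIps training data, a prediction system for drug-induced liver injury; call rule not given here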;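 for HepSE cholecystitis: Cholecystitis-related hepatic side effect score drawn from the DILIps (drug-induced liver injury prediction) training data set; call rule not given here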;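 for HepSE cholelithiasis: hepatic side effect score for cholelithiasis, drawn from the DILIps training data for predicting drug-induced liver injury; call rule not given here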;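 for HepSE cirrhosis: cirrhosis hepatic side effect score taken from the DILIps (drug-induced liver injury prediction) training set; call rule not given here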;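 for HepSE elevated liver function tests: hepatic side effect score for raised liver function tests, as recorded in the DILIps training set used for predicting drug-induced liver injury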; for HepSE hepatic failure: call rule not given here
Hepatotoxicity [4] = system: Hepatotoxicity; remark: listed apart in the source;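 for HepSE bilirubinemia: bilirubinemia hepatic side effect score drawn from the DILIps training data, a prediction system for drug-induced liver injury; call rule not given here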;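 for HepSE cholecystitis: Cholecystitis-related hepatic side effect score drawn from the DILIps (drug-induced liver injury prediction) training data set; call rule not given here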;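 for HepSE cholelithiasis: hepatic side effect score for cholelithiasis, drawn from the DILIps training data for predicting drug-induced liver injury; call rule not given here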;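 for HepSE cirrhosis: cirrhosis hepatic side effect score taken from the DILIps (drug-induced liver injury prediction) training set; call rule not given here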;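 for HepSE elevated liver function tests: hepatic side effect score for raised liver function tests, as recorded in the DILIps training set used for predicting drug-induced liver injury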; for HepSE hepatic failure: call rule not given here
Hepatotoxicity [5] = system: Hepatotoxicity; remark: listed apart in the source; for HepSE hepatic failure: call rule not given here
Hepatotoxicity [6] = system: Hepatotoxicity; remark: listed apart in the source; for HepSE hepatic failure: call rule not given here
Hepatotoxicity [7] = system: Hepatotoxicity; remark: listed apart in the source
Hepatotoxicity [8] = system: Hepatotoxicity; remark: listed apart in the source
Hepatotoxicity [9] = system: Hepatotoxicity; remark: listed apart in the source
Hepatotoxicity [10] = system: Hepatotoxicity; remark: listed apart in the source
Hepatotoxicity [11] = system: Hepatotoxicity; remark: listed apart in the source
Hepatotoxicity [12] = system: Hepatotoxicity; remark: listed apart in the source
Hepatotoxicity [13] = system: Hepatotoxicity; remark: listed apart in the source
Hepatotoxicity [14] = system: Hepatotoxicity; remark: listed apart in the source

Row | Compound | HepSE_bilirubinemia (Hepatotoxicity [1]) | HepSE_cholecystitis (Hepatotoxicity [2]) | HepSE_cholelithiasis (Hepatotoxicity [3]) | HepSE_cirrhosis (Hepatotoxicity [4]) | HepSE_elevated liver function tests (Hepatotoxicity [5]) | HepSE_hepatic failure (Hepatotoxicity [6]) | HepSE_hepatic necrosis (Hepatotoxicity [7]) | HepSE_hepatitis (Hepatotoxicity [8]) | HepSE_hepatomegaly (Hepatotoxicity [9]) | HepSE_jaundice (Hepatotoxicity [10]) | HepSE_liver disease (Hepatotoxicity [11]) | HepSE_liver fatty (Hepatotoxicity [12]) | HepSE_liver function tests abnormal (Hepatotoxicity [13]) | HepSE_Combined Scores (Hepatotoxicity [14]) | further results
1 | Cn1c(=O)c2[nH]cnc2n(C)c1=O.O [THEOPHYLLINE] | 0 | 0 | 0 | 0 | 0 | 0 | 0 | 0 | 0 | 0 | 0 | 0 | 0 | 0 | –
2 | c1ccc2[nH]c(-c3cscn3)nc2c1 [THIABENDAZOLE] | 0 | 0 | 0 | 0 | 0 | 1 | 0 | 0 | 0 | 1 | 0 | 0 | 0 | 2 | –
3 | CSc1ccc2c(c1)N(CCC1CCCCN1C)c1ccccc1S2 (configuration not stated) [THIORIDAZINE] | 0 | 0 | 0 | 0 | 0 | 0 | 0 | 0 | 0 | 1 | 0 | 0 | 0 | 1 | –
4 | S=P(N1CC1)(N1CC1)N1CC1 [THIOTEPA] | 1 | 0 | 0 | 0 | 0 | 0 | 0 | 0 | 0 | 0 | 0 | 0 | 0 | 1 | –
5 | Cc1ccsc1C(=CCCN1CCC[C@@H](C(=O)O)C1)c1sccc1C [TIAGABINE] | 0 | 1 | 1 | 0 | 0 | 0 | 0 | 0 | 1 | 0 | 0 | 0 | 1 | 4 | –
6 | Clc1ccccc1CN1CCc2sccc2C1 [TICLOPIDINE] | – | – | – | – | – | – | – | – | – | – | – | – | – | – | HepSE_bilirubinemia (Hepatotoxicity [1]; Liver): 0; HepSE_cholecystitis (Hepatotoxicity [2]; Liver): 0; HepSE_cholelithiasis (Hepatotoxicity [3]; Liver): 0; HepSE_cirrhosis (Hepatotoxicity [4]; Liver): 0; HepSE_elevated liver function tests (Hepatotoxicity [5]; Liver): 0; HepSE_hepatic failure (Hepatotoxicity [6]; Liver): 1; HepSE_hepatic necrosis (Hepatotoxicity [7]; Liver): 1; HepSE_hepatitis (Hepatotoxicity [8]; Liver): 1; HepSE_hepatomegaly (Hepatotoxicity [9]; Liver): 0; HepSE_jaundice (Hepatotoxicity [10]; Liver): 1; HepSE_liver disease (Hepatotoxicity [11]; Liver): 0; HepSE_liver fatty (Hepatotoxicity [12]; Liver): 0; HepSE_liver function tests abnormal (Hepatotoxicity [13]; Liver): 0; HepSE_Combined Scores (Hepatotoxicity [14]; Liver): 4
7 | CN(C)c1cc(NC(=O)CNC(C)(C)C)c(O)c2c1C[C@H]1C[C@H]3[C@H](N(C)C)C(O)=C(C(N)=O)C(=O)[C@@]3(O)C(O)=C1C2=O [TIGECYCLINE] | 1 | 0 | 0 | 0 | 0 | 1 | 0 | 0 | 0 | 1 | 0 | 0 | 1 | 4 | –
8 | O=P(O)(O)C(Sc1ccc(Cl)cc1)P(=O)(O)O [TILUDRONIC ACID] | 0 | 0 | 0 | 0 | 0 | 0 | 0 | 0 | 0 | 0 | 0 | 0 | 0 | 0 | –
9 | CC(C)(C)NC[C@H](O)COc1nsnc1N1CCOCC1 [TIMOLOL] | 0 | 0 | 0 | 0 | 0 | 0 | 0 | 0 | 1 | 0 | 0 | 0 | 0 | 1 | –
10 | CCS(=O)(=O)CCn1c([N+](=O)[O-])cnc1C [TINIDAZOLE] | 0 | 0 | 0 | 0 | 0 | 0 | 0 | 0 | 0 | 0 | 0 | 0 | 0 | 0 | –
11 | C[N+]1(C)[C@@H]2C[C@@H](OC(=O)C(O)(c3cccs3)c3cccs3)C[C@H]1[C@@H]1O[C@@H]12 [TIOTROPIUM] | 0 | 0 | 0 | 0 | 0 | 0 | 0 | 0 | 0 | 0 | 0 | 0 | 0 | 0 | –
12 | CCCCS(=O)(=O)N[C@@H](Cc1ccc(OCCCCC2CCNCC2)cc1)C(=O)O [TIROFIBAN] | – | – | – | – | – | – | – | – | – | – | – | – | – | – | HepSE_bilirubinemia (Hepatotoxicity [1]; Liver): 0; HepSE_cholecystitis (Hepatotoxicity [2]; Liver): 0; HepSE_cholelithiasis (Hepatotoxicity [3]; Liver): 0; HepSE_cirrhosis (Hepatotoxicity [4]; Liver): 0; HepSE_elevated liver function tests (Hepatotoxicity [5]; Liver): 0; HepSE_hepatic failure (Hepatotoxicity [6]; Liver): 0; HepSE_hepatic necrosis (Hepatotoxicity [7]; Liver): 0; HepSE_hepatitis (Hepatotoxicity [8]; Liver): 0; HepSE_hepatomegaly (Hepatotoxicity [9]; Liver): 0; HepSE_jaundice (Hepatotoxicity [10]; Liver): 0; HepSE_liver disease (Hepatotoxicity [11]; Liver): 0; HepSE_liver fatty (Hepatotoxicity [12]; Liver): 0; HepSE_liver function tests abnormal (Hepatotoxicity [13]; Liver): 0; HepSE_Combined Scores (Hepatotoxicity [14]; Liver): 0
13 | Clc1ccc2nsnc2c1NC1=NCCN1 [TIZANIDINE] | – | – | – | – | – | – | – | – | – | – | – | – | – | – | HepSE_bilirubinemia (Hepatotoxicity [1]; Liver): 0; HepSE_cholecystitis (Hepatotoxicity [2]; Liver): 0; HepSE_cholelithiasis (Hepatotoxicity [3]; Liver): 1; HepSE_cirrhosis (Hepatotoxicity [4]; Liver): 1; HepSE_elevated liver function tests (Hepatotoxicity [5]; Liver): 0; HepSE_hepatic failure (Hepatotoxicity [6]; Liver): 1; HepSE_hepatic necrosis (Hepatotoxicity [7]; Liver): 1; HepSE_hepatitis (Hepatotoxicity [8]; Liver): 1; HepSE_hepatomegaly (Hepatotoxicity [9]; Liver): 0; HepSE_jaundice (Hepatotoxicity [10]; Liver): 1; HepSE_liver disease (Hepatotoxicity [11]; Liver): 1; HepSE_liver fatty (Hepatotoxicity [12]; Liver): 0; HepSE_liver function tests abnormal (Hepatotoxicity [13]; Liver): 1; HepSE_Combined Scores (Hepatotoxicity [14]; Liver): 8

— ChEMBL document CHEMBL1909294, “Translating clinical findings into knowledge in drug safety evaluation--drug induced liver injury prediction system (DILIps)” (PLoS Comput Biol, 2011)
